Columns and labels:
Assay in all cases: TMT LC-MSMS of 11-labelled proteins
Type in all cases: cell-based
[1] = biological target: T1, Folate transporter 1 (SLC19A1) (Homo sapiens, UniProt P41440)
T1 sequence (P41440 1-591): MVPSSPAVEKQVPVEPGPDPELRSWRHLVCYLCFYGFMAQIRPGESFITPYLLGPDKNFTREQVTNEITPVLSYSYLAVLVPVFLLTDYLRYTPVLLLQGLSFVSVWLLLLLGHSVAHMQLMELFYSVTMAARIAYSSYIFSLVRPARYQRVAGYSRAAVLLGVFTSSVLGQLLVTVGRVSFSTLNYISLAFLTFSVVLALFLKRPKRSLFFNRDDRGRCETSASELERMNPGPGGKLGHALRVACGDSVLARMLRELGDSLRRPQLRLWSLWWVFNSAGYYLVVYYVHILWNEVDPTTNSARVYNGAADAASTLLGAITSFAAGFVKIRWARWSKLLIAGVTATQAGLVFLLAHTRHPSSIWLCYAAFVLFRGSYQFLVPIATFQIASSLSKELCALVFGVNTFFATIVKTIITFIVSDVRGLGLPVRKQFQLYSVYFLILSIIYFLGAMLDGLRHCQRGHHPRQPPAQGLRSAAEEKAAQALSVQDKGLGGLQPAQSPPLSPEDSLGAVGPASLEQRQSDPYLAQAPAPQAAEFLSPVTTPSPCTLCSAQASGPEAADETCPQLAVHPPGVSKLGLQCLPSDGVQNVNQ

Prohibitin-2 (PHB2) = Prohibitin-2 (PHB2) (Homo sapiens, UniProt Q99623); conditions: SKBR3 cells; for Abundance Ratio: (11) / (DMSO): 11 0.5 µM 3 h vs DMSO; for Abundance Ratio: (11) / (11 with PU-H71): 11 0.5 µM 3 h vs with PU-H71 10 µM
peroxiredoxin-1 (PRDX1) = biological target: T2, peroxiredoxin-1 (PRDX1) (Homo sapiens, UniProt Q06830)
T2 sequence (Q06830 1-199): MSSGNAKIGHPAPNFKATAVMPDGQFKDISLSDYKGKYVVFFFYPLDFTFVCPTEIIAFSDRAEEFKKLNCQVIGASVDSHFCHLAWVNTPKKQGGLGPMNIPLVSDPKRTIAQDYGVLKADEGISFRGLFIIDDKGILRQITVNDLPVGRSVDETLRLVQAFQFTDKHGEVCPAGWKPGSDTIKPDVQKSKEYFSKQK

[2] = sheet Merged, SKBR3 cells, 11 0.5 µM 3 h vs DMSO
[3] = sheet Merged, SKBR3 cells, 11 0.5 µM 3 h vs with PU-H71 10 µM

Sequence of Prohibitin-2 (PHB2) (Q99623 whole entry): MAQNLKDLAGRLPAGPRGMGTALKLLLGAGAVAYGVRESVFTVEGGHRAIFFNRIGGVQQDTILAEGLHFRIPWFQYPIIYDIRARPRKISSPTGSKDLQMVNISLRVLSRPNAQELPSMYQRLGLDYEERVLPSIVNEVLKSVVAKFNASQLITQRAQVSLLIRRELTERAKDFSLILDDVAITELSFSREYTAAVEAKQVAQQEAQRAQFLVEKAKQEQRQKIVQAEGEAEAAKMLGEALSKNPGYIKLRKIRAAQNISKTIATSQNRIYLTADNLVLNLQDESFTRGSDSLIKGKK
Sequence of Prohibitin-2 (PHB2) (P35232 whole entry partner): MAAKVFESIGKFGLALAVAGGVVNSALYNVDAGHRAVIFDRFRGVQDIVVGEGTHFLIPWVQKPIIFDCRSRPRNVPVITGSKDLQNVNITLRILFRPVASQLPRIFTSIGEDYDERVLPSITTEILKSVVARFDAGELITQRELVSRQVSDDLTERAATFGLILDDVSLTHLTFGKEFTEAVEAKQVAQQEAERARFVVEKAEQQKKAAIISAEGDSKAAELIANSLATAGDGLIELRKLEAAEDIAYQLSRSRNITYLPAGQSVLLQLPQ

CC(=O)Oc1ccc2c(c1)Oc1cc(OC(C)=O)ccc1C21OC(=O)c2cc(C(=O)NCCOCCOCCNC(=O)CCCC(=O)N(CC#N)S(=O)(=O)c3ccc(C(=O)NCCCn4c(Sc5cc6c(cc5I)OCO6)nc5c(N)ncnc54)cc3)ccc21 [compound 11]
Abundance Ratio: (11) / (11 with PU-H71) ([1]; Exp3, SLC19A1): 0.875 | Abundance Ratio: (11) / (DMSO) ([1]; Exp3, SLC19A1): 5.164 | Abundances (Grouped): 11 ([1]; Exp3, SLC19A1): 56.8 | Abundances (Grouped): 11 with PU-H71 ([1]; Exp3, SLC19A1): 64.9 | Abundance Ratio: (11) / (11 with PU-H71) ([1]; sheet Exp2, SLC19A1): 1.054 | Abundance Ratio: (11) / (DMSO) ([1]; sheet Exp2, SLC19A1): 3.79 | Abundances (Grouped): 11 ([1]; sheet Exp2, SLC19A1): 111.8 | Abundances (Grouped): 11 with PU-H71 ([1]; sheet Exp2, SLC19A1): 106.1 | Abundance Ratio: (11) / (DMSO) [1, 2]: 4.595 | Abundance Ratio: (11) / (11 with PU-H71) [1, 3]: 0.985 | Abundance Ratio: (11) / (DMSO) (Prohibitin-2 (PHB2); sheet Exp1): 1.815 | Abundance Ratio: (11) / (11 with PU-H71) (Prohibitin-2 (PHB2); sheet Exp1): 0.795 | Abundance Ratio: (11) / (DMSO) (Prohibitin-2 (PHB2); sheet Merged): 1.815 | Abundance Ratio: (11) / (11 with PU-H71) (Prohibitin-2 (PHB2); sheet Merged): 0.795 | Abundance Ratio: (11) / (11 with PU-H71) (peroxiredoxin-1 (PRDX1); Exp3, PRDX1): 0.822 | Abundance Ratio: (11) / (DMSO) (peroxiredoxin-1 (PRDX1); Exp3, PRDX1): 2.683 | Abundances (Grouped): 11 (peroxiredoxin-1 (PRDX1); Exp3, PRDX1): 295.4 | Abundances (Grouped): 11 with PU-H71 (peroxiredoxin-1 (PRDX1); Exp3, PRDX1): 359.3 | Abundance Ratio: (11) / (DMSO) (peroxiredoxin-1 (PRDX1); sheet Exp1, SKBR3 cells, 11 0.5 µM 3 h vs DMSO): 2.358 | Abundance Ratio: (11) / (11 with PU-H71) (peroxiredoxin-1 (PRDX1); sheet Exp1, SKBR3 cells, 11 0.5 µM 3 h vs with PU-H71 10 µM): 0.804 | Abundance Ratio: (11) / (11 with PU-H71) (peroxiredoxin-1 (PRDX1); sheet Exp2, PRDX1): 0.861 | Abundance Ratio: (11) / (DMSO) (peroxiredoxin-1 (PRDX1); sheet Exp2, PRDX1): 2.62 | Abundances (Grouped): 11 (peroxiredoxin-1 (PRDX1); sheet Exp2, PRDX1): 93.8 | Abundances (Grouped): 11 with PU-H71 (peroxiredoxin-1 (PRDX1); sheet Exp2, PRDX1): 109 | Abundance Ratio: (11) / (DMSO) (peroxiredoxin-1 (PRDX1); [2]): 2.219 | Abundance Ratio: (11) / (11 with PU-H71) (peroxiredoxin-1 (PRDX1); [3]): 0.847

Source: article PMC5951806, “Rapid labelling and covalent inhibition of intracellular native proteins using ligand-directed N-acyl-N-alkyl sulfonamide” (Nature Communications, 2018)
